Measured values reported in US3987198A, “Method for lowering the free fatty acid content in sebum using certain fatty acid amides” (Syntex (U.S.A.) Inc., priority 1975, dated 1976).
Converted amounts (≈) assume the structure as drawn. Where two headings read alike, the source gives them in different places.

Key:
[1] = system: C. acnes (ATCC No. 6919); assay: Growth inhibition of C. acnes in Fluid Thioglycollate culture tubes; type: cell-based, Corynebacterium acnes; conditions: for MIC: Cutibacterium acnes, read-out: Inhibitory Concentration at 72 Hours; for Effect on growth of C. acnes: at 200 μg/ml.
Description: Culture tubes are prepared containing 10 ml. of freshly prepared Difco Fluid Thioglycollate medium with agar and indicator. […] Each tube is inoculated with 0.2 ml. of a 48 hour culture of C. acnes (ATCC No. 6919), and the tubes are inspected at 24 hour intervals. Incubation at 37° C.

[2] = Double-blind crossover study of 5% oleic acid diethanolamide gel on the face, forehead surface lipids; type: in vivo, human subjects
Excerpt: The subjects were selected on the basis of having a higher than 20 % free fatty acid content in their individual total sebum. None were on systemic antibiotic therapy during the course of this study.
The subjects were instructed to wash three times daily with Ivory soap, immediately after rinsing and drying the face to apply sufficient medication (active agent or placebo) to cover the entire face with the exception of the eye and cheekbone areas, and to gently massage the medication into the skin. Each treatment was continued for the last 6 weeks of the study, no medication being used, however, during the two-week no-treatment period. No other therapy was permitted on the face during the course of the study. No medicated soaps or shampoos, oily hair dressings or any hair sprays were permitted. Cosmetics other than lipstick and eyeshadow were not to be applied on the days of sebum collection. On days of sebum collection, the forehead was not to be washed, wiped, or touched in the 6 hours between the time of cleansing and the time of sebum collection.
Twice a week during the first two weeks of the study, a forehead sample of surface lipids were obtained from each subject and measured for total weight and free fatty acids. No medication or placebo therapy was employed during this two-week period. These samples from each subject constitute the baseline data for this study. Twice a week for the next 6 weeks, further surface lipid samples were taken from each subject and analyzed. In all cases, the surface lipid samples were collected by drawing sebum from both the left and right sides of the subject's forehead.

[3] = molecular target: T1, crude enzyme from cultures of Corynebacterium acnes (ATCC No. 6919) (lipolytic enzymes) (Cutibacterium acnes, UniProt Q59644); assay: Inhibition of triolein hydrolysis by Corynebacterium acnes lipolytic enzyme (radiolabelled triolein, TLC of free oleic acid); type: biochemical; conditions: 60 minutes at room temperature, pH 7.1 phosphate buffer, triolein 2mM; read-out: Concentration Causing 50% Inhibition of Triolein (2mM) Hydrolysis
T1 construct: crude ethanol-acetic acid precipitate of three-day cultures, Sephadex G-25 and G-100 fractions
Description: A 1 ml. aliquot of glyceryl trioleate-(9,10)T is separated on TLC (silica gel) in hexane-ether-acetic acid (70:30:1) and the area corresponding to pure triolein is eluted. The radioactive material is diluted with cold, previously purified triolein (8.8639 g.) in 500 ml. of benzene. The resulting solution is 20mM in triolein.
The crude enzyme prepared by ethanol-acetic acid precipitation from three day cultures of Corynebacterium acnes (ATCC No. 6919) is passed successively through Sephadex G-25 and G-100 columns, and the concentrate is diluted to 250 ml. for use in the assay described below.
An emulsion is prepared by evaporating 5.70 ml. of the benzene solution, prepared in Example 1 above; 6 ml. of 10% gum arabic in water and 3.4 ml. of 0.05M phosphate buffer (pH 7.1) are added, and the mixture is sonicated for three 20 second intervals. Aliquots (0.7 ml.) containing […] emulsified triolein are added to each of 10 1/6 dram vials for each compound to be assayed.
Vial No. 1 receives an additional 0.3 ml. buffer at time 0, and acts as 0 control. […]
The hydrolysis is allowed to proceed for 60 minutes at room temperature, after which time, the vials are transferred to a silicone oil bath and maintained at 95° C. […] The areas corresponding to free oleic acid (after visualization with iodine vapor) are scraped directly into scintillation vials and counted. […]

[4] = ATCC6919, 72 hours, 37° C., Difco Fluid Thioglycollate medium
[5] = 5% gel of Example 8, topical three times daily, two-week treatment, 21 subjects

T1 sequence (Q59644 entry or part of it): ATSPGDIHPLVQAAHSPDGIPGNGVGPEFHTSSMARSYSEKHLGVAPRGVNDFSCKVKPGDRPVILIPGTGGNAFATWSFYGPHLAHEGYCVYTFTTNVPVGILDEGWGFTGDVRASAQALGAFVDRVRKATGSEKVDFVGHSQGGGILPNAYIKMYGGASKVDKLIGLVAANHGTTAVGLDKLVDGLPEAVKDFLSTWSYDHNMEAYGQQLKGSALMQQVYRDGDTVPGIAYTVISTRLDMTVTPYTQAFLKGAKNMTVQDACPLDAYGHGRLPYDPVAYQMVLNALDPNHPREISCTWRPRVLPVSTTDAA

Work on `CC(C)CCCCCCCCCCCCCCC(=O)N(CCO)CCO` [Isostearic acid diethanolamide] yielded an MIC [1, 4] of ~12.5 µg/mL (≈ 33.6 µM).
`CCCCCCCCCCCC(=O)N(CCO)CCO` [Lauric acid diethanolamide] gave an MIC ([1]; ATCC6919, 72 h) of ~12.5 µg/mL (≈ 43.5 µM).
Compound `CCCCCCCCCCCCCC(=O)N(CCO)CCO` [Myristic acid diethanolamide] has an MIC [1, 4] of ~6.25 µg/mL (≈ 19.8 µM).
In the case of `CCCCCCCC/C=C\CCCCCCCC(=O)N(CCO)CCO` [Oleic acid diethanolamide], the MIC [1, 4] is reported as ~12.5 µg/mL (≈ 33.8 µM), the “free fatty acid values, average lowering versus placebo” value [2, 5] is reported as 11% and the “total sebum values, average lowering versus placebo” value [2, 5] is reported as 8%. The “carryover effect upon total sebum level” value ([2]; 5% gel, crossover study) was “no indication of a carryover effect”, the “overall reduction of average free fatty acid content, end of active treatment versus immediately prior to treatment” value ([2]; 5% gel, two-week treatment) was “approximately 20%” and the “Maximum reduction in free fatty acid levels, subject two” value ([2]; 5% gel, two-week treatment, subject two) was 78%. For the same compound, the “duration of carryover effect upon free fatty acid levels after termination of use” value ([2]; subjects given active agent before placebo) was “at least two weeks”.
For `CCCCCCCC/C=C\CCCCCCCC(=O)O` [Oleic acid, reference compound], the “Effect on growth of C. acnes” value ([1]; 72 hours) was “growth stimulatory”.
`CCCCCCCCCCCCCCCC(=O)N(CCO)CCO` [Palmitic acid diethanolamide] showed an MIC [1, 4] of ~6.25 µg/mL (≈ 18.2 µM).
In the case of `CCCCCCCC/C=C\CCCCCCCC(=O)OCC(COC(=O)CCCCCCC/C=C\CCCCCCCC)OC(=O)CCCCCCC/C=C\CCCCCCCC` [Triolein, reference compound], the “Effect on growth of C. acnes” value ([1]; 72 hours) is reported as “growth stimulatory”.
In the case of `C=CCCCCCCCCC(=O)N(CCO)CCO` [Undecylenic diethanolamide, reference compound], the MIC [1, 4] is reported as > 300 µg/mL.
N-morpholinooleamide gave an IC50 [3] of 700 µM.
